In test [1] the target is T1, SARS-CoV-2 PLpro (nsp3 1564–1878) (Severe acute respiratory syndrome coronavirus 2, UniProt P0DTD1). Kind of test: biochemical. The note with it: high concentration screen, read-out: % of control remaining. The arrangement: FRET-quenched peptide (Pro3) cleavage by PLpro, 10 min pre-incubation, slope over 20 min, normalised to no-compound control.
Test [2] addresses T1, SARS-CoV-2 PLpro (nsp3 1564–1878). Kind of test: biochemical. The arrangement: FRET-quenched peptide (Pro3) cleavage by PLpro, 10 min pre-incubation, slope over 20 min, normalised to no-compound control. To be noted: low concentration screen, read-out: % of control remaining.

Counter-ions that a name gives are not always drawn. Like-named read-outs stand apart in the source and are kept apart here.

`C[C@@H](NCCCc1cccc(C(F)(F)F)c1)c1cccc2ccccc12` [Cinacalcet (hydrochloride)]: the remaining activity at 3.75 µM in test [1] (Well no.=7426) amounted to 104%. In addition, the remaining activity at 1.25 µM in test [2] (Well no.=7426) turned out to be 104%.
Regarding `C[C@@H](NCCCc1cccc(C(F)(F)F)c1)c1cccc2ccccc12` [Cinacalcet], the remaining activity at 3.75 µM in test [1] (Well no.=7389) was determined as 82.2%. For the same molecule, in test [2] (Well no.=7389), the remaining activity at 1.25 µM was 96.2%.
Consider `CN(C)CCCSc1ccccc1NC(=O)/C=C/c1ccccc1` [Cinanserin], for which the remaining activity at 3.75 µM in test [1] (Well no.=2094) is 101%. Also, the remaining activity at 1.25 µM in test [2] (Well no.=2094) was 101%.
For `C=C[C@H]1CN2CC[C@H]1C[C@@H]2[C@@H](O)c1ccnc2ccccc12` [Cinchonine], the remaining activity at 3.75 µM in test [1] (Well no.=7012) was 93.6%. Besides, the remaining activity at 1.25 µM in test [2] (Well no.=7012) amounted to 97.3%.
For `COc1cc(/C=C/C(=O)N2CCN(CC(=O)N3CCCC3)CC2)cc(OC)c1OC` [Cinepazide maleate], the remaining activity at 3.75 µM in test [1] (Well no.=5271) came to 96.6%. Moreover, the remaining activity at 1.25 µM in test [2] (Well no.=5271) turned out to be 95.9%.
Consider `Nc1c(C(=O)O)c2nc3c(C(=O)O)cccc3oc-2cc1=O` [Cinnabarinic Acid], for which, in test [1] (Well no.=5384), the remaining activity at 3.75 µM was 96.7%. Besides, in test [2] (Well no.=5384), the remaining activity at 1.25 µM is 91.8%.
Turning to `O=C(O)/C=C/c1ccccc1` [Cinnamic acid], the remaining activity at 3.75 µM in test [1] (Well no.=7011) came to 105%. Also, the remaining activity at 1.25 µM in test [2] (Well no.=7011) worked out at 104%.
For the molecule `CCn1nc(C(=O)O)c(=O)c2cc3c(cc21)OCO3` [Cinoxacin], the remaining activity at 3.75 µM in test [1] (Well no.=332) is 96.9%. Moreover, the remaining activity at 1.25 µM in test [2] (Well no.=332) was determined as 98.1%.
For `CC(C)(C[C@H]1CN(S(=O)(=O)c2cccc(C(F)(F)F)c2)c2cc(-c3cc(F)cc(OC(F)F)c3)ccc2O1)C(=O)O` [Cintirorgon], the remaining activity at 3.75 µM in test [1] (Well no.=8171) came out at 98.6%. In test [2] (Well no.=8171), the remaining activity at 1.25 µM worked out at 99.9%.
`CC(C)(Oc1ccc(C2CC2(Cl)Cl)cc1)C(=O)O` (centres unmarked) [Ciprofibrate]: in test [1] (Well no.=41), the remaining activity at 3.75 µM came out at 93.5%. Moreover, the remaining activity at 1.25 µM in test [2] (Well no.=41) was found to be 92.6%.
As to `O=C(O)c1cn(C2CC2)c2cc(N3CCNCC3)c(F)cc2c1=O` [Ciprofloxacin], the remaining activity at 3.75 µM in test [1] (Well no.=2263) turned out to be 100%. Besides, in test [2] (Well no.=2263), the remaining activity at 1.25 µM amounted to 99%.
For `O=C(c1ccc(OCCCc2c[nH]cn2)cc1)C1CC1` [Ciproxifan (maleate)], the remaining activity at 3.75 µM in test [1] (Well no.=7089) was 105%. In addition, the remaining activity at 1.25 µM in test [2] (Well no.=7089) is 103%.
Consider `O=C(c1ccc(OCCCc2c[nH]cn2)cc1)C1CC1` [Ciproxifan], for which the remaining activity at 3.75 µM in test [1] (Well no.=5316) amounted to 97%. Further, the remaining activity at 1.25 µM in test [2] (Well no.=5316) was determined as 101%.
As for `c1ccc(C2CC2)c(OCC2=NCCN2)c1` [Cirazoline hydrochloride], the remaining activity at 3.75 µM in test [1] (Well no.=537) amounted to 103%. Also, the remaining activity at 1.25 µM in test [2] (Well no.=537) was determined as 106%.
Regarding `CN(C)CCCC1(c2ccc(F)cc2)OCc2cc(C#N)ccc21` (centres unmarked) [Citalopram hydrobromide], the remaining activity at 3.75 µM in test [1] (Well no.=90) was 100%. In addition, the remaining activity at 1.25 µM in test [2] (Well no.=90) turned out to be 95%.
As for `CN(C)CCCC1(c2ccc(F)cc2)OCc2cc(C#N)ccc21` (centres unmarked) [Citalopram], the remaining activity at 3.75 µM in test [1] (Well no.=2265) worked out at 103%. The remaining activity at 1.25 µM in test [2] (Well no.=2265) was determined as 97.4%.
As for `C[N+](C)(C)CCOP(=O)(O)OP(=O)([O-])OC[C@H]1O[C@@H](n2ccc(N)nc2=O)[C@H](O)[C@@H]1O` [Citicoline sodium salt], the remaining activity at 3.75 µM in test [1] (Well no.=7726) was found to be 110%. The remaining activity at 1.25 µM in test [2] (Well no.=7726) was 104%.
For the molecule `C[N+](C)(C)CCOP(=O)(O)OP(=O)([O-])OC[C@H]1O[C@@H](n2ccc(N)nc2=O)[C@H](O)[C@@H]1O` [Citicoline sodium], in test [1] (Well no.=375), the remaining activity at 3.75 µM was 101%. Besides, the remaining activity at 1.25 µM in test [2] (Well no.=375) turned out to be 91.9%.
`C[N+](C)(C)CCOP(=O)(O)OP(=O)([O-])OC[C@H]1O[C@@H](n2ccc(N)nc2=O)[C@H](O)[C@@H]1O` [Citicoline]: in test [1] (Well no.=8931), the remaining activity at 3.75 µM was 88.7%. In addition, the remaining activity at 1.25 µM in test [2] (Well no.=8931) was determined as 89%.
Consider `C/C(=C/C(=O)O)C(=O)O` [Citraconic acid], for which the remaining activity at 3.75 µM in test [1] (Well no.=6261) was found to be 89.6%. The remaining activity at 1.25 µM in test [2] (Well no.=6261) amounted to 102%.
In the case of `COc1cc(=O)oc(/C=C/C=C/C=C/C(C)=C/[C@]2(C)O[C@H](C)[C@](C)(O)[C@H]2O)c1C` [Citreoviridin], the remaining activity at 3.75 µM in test [1] (Well no.=3391) is 96.6%. For the same molecule, the remaining activity at 1.25 µM in test [2] (Well no.=3391) is 92.8%.
Turning to `O=C(O)CC(O)(CC(=O)O)C(=O)O` [Citric acid], the remaining activity at 3.75 µM in test [1] (Well no.=6195) was found to be 103%; in test [1] (Well no.=6298), 104%. In addition, the remaining activity at 1.25 µM in test [2] (Well no.=6195) was 104%; in test [2] (Well no.=6298), 103%.
On to `CC1=C2C(=CO[C@H](C)[C@H]2C)C(O)=C(C(=O)O)C1=O` [Citrinin], for which the remaining activity at 3.75 µM in test [1] (Well no.=3171) came out at 107%. Further, in test [2] (Well no.=3171), the remaining activity at 1.25 µM was 101%.
`Nc1nc(Cl)nc2c1ncn2[C@H]1C[C@H](O)[C@@H](CO)O1` [Cladribine]: the remaining activity at 3.75 µM in test [1] (Well no.=5101) is 108%; in test [1] (Well no.=8050), 100%. Moreover, the remaining activity at 1.25 µM in test [2] (Well no.=5101) is 107%; in test [2] (Well no.=8050) it was 99%.
Consider `CC[C@H]1OC(=O)[C@H](C)[C@@H](O[C@H]2C[C@@](C)(OC)[C@@H](O)[C@H](C)O2)[C@H](C)[C@@H](O[C@@H]2O[C@H](C)C[C@H](N(C)C)[C@H]2O)[C@](C)(OC)C[C@@H](C)C(=O)[C@H](C)[C@@H](O)[C@]1(C)O` [Clarithromycin], for which, in test [1] (Well no.=2267), the remaining activity at 3.75 µM came to 89.2%. For the same molecule, the remaining activity at 1.25 µM in test [2] (Well no.=2267) was 89%.
With `COc1cc(N)c(Cl)cc1C(=O)NC1CCN(Cc2ccccc2)CC1` [Clebopride (malate)], in test [1] (Well no.=7335), the remaining activity at 3.75 µM is 102%. Also, the remaining activity at 1.25 µM in test [2] (Well no.=7335) is 105%.
With `Clc1ccc(Cn2c(CN3CCCC3)nc3ccccc32)cc1` [Clemizole (hydrochloride)], the remaining activity at 3.75 µM in test [1] (Well no.=6558) stood at 93.2%. In addition, the remaining activity at 1.25 µM in test [2] (Well no.=6558) was determined as 93.9%.
Turning to `Clc1ccc(Cn2c(CN3CCCC3)nc3ccccc32)cc1` [Clemizole hydrochloride], the remaining activity at 3.75 µM in test [1] (Well no.=226) was found to be 98%. Further, the remaining activity at 1.25 µM in test [2] (Well no.=226) turned out to be 98.5%.
Regarding `CC(C)(C)NCC(O)c1cc(Cl)c(N)c(Cl)c1` (centres unmarked) [Clenbuterol (hydrochloride)], the remaining activity at 3.75 µM in test [1] (Well no.=7371) was 104%. The remaining activity at 1.25 µM in test [2] (Well no.=7371) was determined as 103%.
On to `CC(C)(C)NCC(O)c1cc(Cl)c(N)c(Cl)c1` (centres unmarked) [Clenbuterol], for which the remaining activity at 3.75 µM in test [1] (Well no.=1743) stood at 102%. Also, in test [2] (Well no.=1743), the remaining activity at 1.25 µM came out at 102%.
In the case of `Cc1cn([C@H]2O[C@@H](CO)[C@H](O)[C@H]2F)c(=O)[nH]c1=O` [Clevudine], the remaining activity at 3.75 µM in test [1] (Well no.=8012) is 100%; in test [1] (Well no.=8342) it was 91.2%. Besides, the remaining activity at 1.25 µM is 98% in test [2] (Well no.=8012) and 92.4% in test [2] (Well no.=8342).

The values above are taken from article PMC8286840, “Identifying SARS-CoV-2 antiviral compounds by screening for small molecule inhibitors of Nsp3 papain-like protease” (Biochemical Journal, 2021).
